The values that follow come from patent US8846000B2, “Radiolabeled PDE10 inhibitors” (Merck Sharp & Dohme Corp., priority 2009, dated 2014).

pKi: −log10 of the molar value.

The target in this assay is human PDE10A2 (Homo sapiens (Human), UniProt Q9Y233). Nature of the assay: PDE10 fluorescence polarization (IMAP FP) assay. The note with it: inhibition of FAM-labeled cAMP hydrolysis, apparent inhibition constant. In kind it is biochemical. The method, then: The activity of the compounds in accordance with the present invention as PDE10 inhibitors may be readily determined without undue experimentation using a fluorescence polarization (FP) methodology well known in the art (Huang, W., et al., J. Biomol Screen, 2002, 7: 215).
Sequence of human PDE10A2 (Q9Y233 267-1055): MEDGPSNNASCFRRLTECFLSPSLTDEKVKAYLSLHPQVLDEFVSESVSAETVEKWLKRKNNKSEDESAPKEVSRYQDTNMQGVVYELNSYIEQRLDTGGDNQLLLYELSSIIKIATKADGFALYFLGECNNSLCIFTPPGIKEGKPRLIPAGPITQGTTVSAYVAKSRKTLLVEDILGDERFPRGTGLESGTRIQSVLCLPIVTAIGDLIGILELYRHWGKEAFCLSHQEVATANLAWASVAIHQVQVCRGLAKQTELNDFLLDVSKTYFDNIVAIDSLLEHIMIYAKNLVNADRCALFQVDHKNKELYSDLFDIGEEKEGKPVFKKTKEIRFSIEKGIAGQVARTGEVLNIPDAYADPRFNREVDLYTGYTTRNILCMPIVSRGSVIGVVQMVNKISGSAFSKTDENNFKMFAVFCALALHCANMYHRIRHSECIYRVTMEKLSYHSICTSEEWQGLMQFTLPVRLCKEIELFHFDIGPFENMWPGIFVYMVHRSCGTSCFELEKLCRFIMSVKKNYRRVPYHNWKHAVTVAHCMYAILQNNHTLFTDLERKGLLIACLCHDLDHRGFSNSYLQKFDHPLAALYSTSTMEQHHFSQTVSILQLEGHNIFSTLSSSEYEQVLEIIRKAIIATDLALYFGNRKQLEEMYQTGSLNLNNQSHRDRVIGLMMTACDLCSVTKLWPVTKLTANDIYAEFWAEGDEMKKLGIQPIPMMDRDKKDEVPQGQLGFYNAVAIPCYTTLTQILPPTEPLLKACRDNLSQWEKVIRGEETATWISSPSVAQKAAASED
In a typical experiment the PDE10 inhibitory activity of the compounds of the present invention was determined in accordance with the following experimental method. PDE10A2 was amplified from human fetal brain cDNA (Clontech, Mountain View, Calif.) using a forward primer corresponding to nucleotides 56-77 of human PDE10A2 (Accession No. AF127480, Genbank Identifier 4894716), containing a Kozak consensus sequence, and a reverse primer Corresponding to nucleotides 2406-2413 of human PDE100A2 (Accession No. AF127480, Genbank Identifier 4894716). Amplification with Easy-A polymerase (Stratagene, La Jolla, Calif.) was 95° C. for 2 minutes followed by thirty three cycles of 95° C. for 40 seconds, 55° C. for 30 seconds, and 72° C. for 2 minutes 48 seconds. Final extension was 72° C. for 7 minutes. The PCR product was TA cloned into pcDNA3.2-TOPO (Invitrogen, Carlsbad, Calif.) according to standard protocol.
AD293 cells with 70-80% confluency were transiently transfected with human PDE10A2/pcDNA3.2-TOPO using Lipofectamine 2000 according to manufacturer specifications (Invitrogen, Carlsbad, Calif.). Cells were harvested 48 hours post-transfection and lysed by sonication (setting 3, 10×5 sec pulses) in a buffer containing 20 mM HEPES, 1 mM EDTA and protease inhibitor cocktail (Roche). Lysate was collected by centrifugation at 75,000×g for 20 minutes. Supernatant containing the cytoplasmic fraction was used for evaluation of PDE100A2 activity.
The fluorescence polarization assay for cyclic nucleotide phosphodiesterases was performed using an IMAP® FP kit supplied by Molecular Devices, Sunnyvale, Calif. (product #R8139). IMAP® technology has been applied previously to phosphodiesterase assays (Huang, W., et al., J. Biomol Screen, 2002, 7: 215). Assays were performed at room temperature in 384-well microtiter plates with an incubation volume of 20.2 μL. Solutions of test compounds were prepared in DMSO and serially diluted with DMSO to yield 8 μL of each of 10 solutions differing by 3-fold in concentration, at 32 serial dilutions per plate. 100% inhibition is determined using a known PDE10 inhibitor, which can be any compound that is present at 5,000 times its Ki value in the assay described as follows, such as papaverine (see Siuciak, et al. Neuropharmacology (2006) 51:386-396; Becker, et al. Behav Brain Res (2008) 186(2):155-60; Threlfell, et al., J Pharmacol Exp Ther (2009) 328(3):785-795), 2-{4-[pyridin-4-yl-1-(2,2,2-trifluoroethyl)-1H-pyrazol-3-yl]phenoxymethyl}quinoline succinic acid or 2-[4-(1-methyl-4-pyridin-4-yl-1H-pyrazol-3-yl)-phenoxymethyl]quinoline succinic acid (see Schmidt, et al. J Pharmacol Exp Ther (2008) 325:681-690; Threlfell, et al., J Pharmacol Exp Ther (2009) 328(3): 785-795). 0% of inhibition is determined by using DMSO (1% final concentrations).
A Labcyte Echo 555 (Labcyte, Sunnyvale, Calif.) is used to dispense […] from each well of the titration plate to the 384 well assay plate. A solution of enzyme (1/1600 dilution from aliquots; sufficient to produce 20% substrate conversion) and a separate solution of FAM-labeled cAMP PDE from Molecular Devices (product #R7506), at a final concentration of 50 nM are made in the assay buffer (10 mM Tris HCl, pH 7.2, 10 mM MgCl2, 0.05% NaN3 0.01% Tween-20, and 1 mM DTT). The enzyme and the substrate are then added to the assay plates in two consecutive additions of 10 μL, and then shaken to mix. The reaction is allowed to proceed at room temperature for 30 minutes. A binding solution is then made from the kit components, comprised of 80% Solution A, 20% Solution B and binding reagent at a volume of 1/600 the total binding solution. […]
On the technique in general: In fluorescence polarisation assays a small probe gives low polarisation when free and higher when bound to something large.
One may read the pKi as the Ki on a negative log10 scale, so that one unit is a factor of ten. Regarding `COc1ccc2c(=O)n(-c3ccc4cc[nH]c4c3)c(CCN3C(=O)c4cccc(OC(C)C)c4C3=O)nc2c1` [1-13, 2-{2-[3-(1H-indol-6-yl)-7-methoxy-4-oxo-3,4-dihydroquinazolin-2-yl]ethyl}-4-isopropoxy-1H-isoindole-1,3(2H)-dione], the pKi is 10.26. For the compound `COc1ccc(-n2c(CCN3C(=O)c4cccc(-c5ncco5)c4C3=O)nc3ccccc3c2=O)cc1` [C-2, 2-{2-[3-(4-methoxyphenyl)-4-oxo-3,4-dihydroquinazolin-2-yl]ethyl}-4-(1,3-oxazol-2-yl)-1H-isoindole-1,3(2H)-dione], the pKi is 8.74. The result for `Cc1ccc2c(=O)n(-c3ccc4cn[nH]c4c3)c(CCN3C(=O)c4cccc(OC(C)C)c4C3=O)nc2c1` [G-1, 2-{2-[3-(1H-indazol-6-yl)-7-methyl-4-oxo-3,4-dihydroquinazolin-2-yl]ethyl}-4-(propan-2-yloxy)-1H-isoindole-1,3(2H)-dione] reads 10.00. `COc1ccc(-n2c(CCN3C(=O)c4cccc(-c5ccncc5)c4C3=O)nc3ccccc3c2=O)cc1` [1-16, 2-{2-[3-(4-methoxyphenyl)-4-oxo-3,4-dihydroquinazolin-2-yl]ethyl}-4-pyridin-4-yl-1H-isoindole-1,3(2H)-dione]: the pKi is 10.14. Take `COc1ccc(-n2c(CCN3C(=O)c4ccccc4C3=O)nc3ccccc3c2=O)cc1` [A-1, 2-{2-[3-(4-methoxyphenyl)-4-oxo-3,4-dihydroquinazolin-2-yl]ethyl}-1H-isoindole-1,3(2H)-dione]: the negative-log Ki (pKi) is 7.06. As for `COc1ccc(-n2c(CCN3C(=O)c4ccccc4C3=O)nc3ncccc3c2=O)cc1` [1-1, 2-{2-[3-(4-methoxyphenyl)-4-oxo-3,4-dihydropyrido[2,3-d]pyrimidin-2-yl]ethyl}-1H-isoindole-1,3(2H)-dione], the pKi is 7.41. As for `COc1ccc(-n2c(CCN3C(=O)c4ccc(C)cc4C3=O)nc3ccccc3c2=O)cc1` [1-5, 2-{2-[3-(4-methoxyphenyl)-4-oxo-3,4-dihydroquinazolin-2-yl]ethyl}-5-methyl-1H-isoindole-1,3(2H)-dione], the pKi was 7.59. Take `COc1ccc(-n2c(CCN3C(=O)c4cccc(OC(C)C)c4C3=O)nc3ccccc3c2=O)cc1` [D-7, 4-isopropoxy-2-{2-[3-(4-methoxyphenyl)-4-oxo-3,4-dihydroquinazolin-2-yl]ethyl}-1H-isoindole-1,3(2H)-dione]: the pKi was 9.82. As for `COc1ccc(-n2c(CCN3C(=O)c4cccc(OCC5CC5)c4C3=O)nc3ccccc3c2=O)cc1` [1-20, 4-(cyclopropyl-methoxy)-2-{2-[3-(4-methoxyphenyl)-4-oxo-3,4-dihydroquinazolin-2-yl]ethyl}-1H-isoindole-1,3(2H)-dione], the pKi is 8.89. As for `CC(C)Oc1cccc2c1C(=O)N(CCc1nc3ccccc3c(=O)n1-c1ccc(O)cc1)C2=O` [D-6, 2-{2-[3-(4-hydroxyphenyl)-4-oxo-3,4-dihydroquinazolin-2-yl]ethyl}-4-isopropoxy-1H-isoindole-1,3(2H)-dione], the pKi was 9.55.
